Five molecules from patent publication US20140315889A1, “HYDROXAMATE DERIVATIVES FOR HDAC INHIBITOR, AND THE PHARMACEUTICAL COMPOSITION COMPRISING THEREOF” (CHONG KUN DANG PHARMACEUTICAL CORP., priority 2011, published 2014) can be followed below.

Read-outs that look alike come from different tables or passages of the source.

Common to all, as to assay type: biochemical
Assay [1] addresses T1, Human recombinant HDAC1 (Homo sapiens, UniProt Q13547).
T1 construct: purchased Enzo Life Science Co. (named for the kit; assigned to the enzyme from the BML- catalogue prefix) BML-SE456
As to the kind of experiment: HDAC enzyme activity test, HDAC1. As to the method: (§1) Then, 0.3 μg of enzyme and 10 μM of substrate per well were added, reacted at 30° C. for 60 minutes. Thereto, Fluor de Lys® Developer II (BML-KI176) was added and reacted for 30 minutes. […] From the data, the respective IC50 were calculated by GraphPad Prism 4.0 program.

Assay [2] has as its target HDAC5 (Homo sapiens, UniProt Q9UQL6). As to the kind of experiment: HDAC enzyme activity test, HDAC5. Particulars: Table 11, eleven HDAC isozymes; read-out: Inhibition ability (IC50) against HDAC5. As to the method: as §1
Assay [3] has as its target HDAC9 (Homo sapiens, UniProt Q9UKV0). As to the kind of experiment: HDAC enzyme activity test, HDAC9. The following applies: Table 11, eleven HDAC isozymes; read-out: Inhibition ability (IC50) against HDAC9. As to the method: as §1
Assay [4] concerns the target T2, HDAC10 (Homo sapiens, UniProt Q969S8).
T2 sequence (Q969S8 1-669): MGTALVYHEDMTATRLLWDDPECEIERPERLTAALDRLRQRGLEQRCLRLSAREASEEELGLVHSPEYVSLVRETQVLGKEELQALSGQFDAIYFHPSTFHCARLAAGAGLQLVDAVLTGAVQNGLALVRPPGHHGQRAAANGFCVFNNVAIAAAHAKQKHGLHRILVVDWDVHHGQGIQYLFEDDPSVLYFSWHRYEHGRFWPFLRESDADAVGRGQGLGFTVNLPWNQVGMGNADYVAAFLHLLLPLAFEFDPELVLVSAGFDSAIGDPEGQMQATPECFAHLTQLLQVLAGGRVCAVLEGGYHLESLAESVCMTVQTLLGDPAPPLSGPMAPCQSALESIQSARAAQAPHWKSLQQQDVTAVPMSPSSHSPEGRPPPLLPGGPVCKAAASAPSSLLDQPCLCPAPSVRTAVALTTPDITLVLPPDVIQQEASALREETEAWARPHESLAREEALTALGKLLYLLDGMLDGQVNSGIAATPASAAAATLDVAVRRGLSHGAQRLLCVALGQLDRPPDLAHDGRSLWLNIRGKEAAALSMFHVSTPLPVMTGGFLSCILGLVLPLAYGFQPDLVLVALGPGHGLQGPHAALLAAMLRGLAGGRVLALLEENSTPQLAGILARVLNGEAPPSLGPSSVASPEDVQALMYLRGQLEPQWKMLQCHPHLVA
Briefly: HDAC enzyme activity test, HDAC10. The following applies: Table 11, eleven HDAC isozymes; read-out: Inhibition ability (IC50) against HDAC10. As to the method: as §1

The target of assay [5] is T3, HDAC8 (Homo sapiens, UniProt Q9BY41).
T3 sequence (Q9BY41 1-377): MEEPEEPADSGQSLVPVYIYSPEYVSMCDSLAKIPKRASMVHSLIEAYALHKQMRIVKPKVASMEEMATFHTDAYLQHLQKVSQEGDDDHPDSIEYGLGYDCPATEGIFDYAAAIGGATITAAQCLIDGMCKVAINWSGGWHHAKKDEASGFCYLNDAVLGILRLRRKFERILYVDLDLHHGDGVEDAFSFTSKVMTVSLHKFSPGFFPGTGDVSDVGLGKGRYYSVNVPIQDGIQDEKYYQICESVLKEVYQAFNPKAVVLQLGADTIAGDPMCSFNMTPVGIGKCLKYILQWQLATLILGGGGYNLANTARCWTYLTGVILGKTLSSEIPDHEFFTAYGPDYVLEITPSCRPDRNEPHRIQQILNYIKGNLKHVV
Briefly: HDAC enzyme activity test, HDAC8. Particulars: Table 11, eleven HDAC isozymes; read-out: Inhibition ability (IC50) against HDAC8. As to the method:
as §1

Assay [6] addresses HDAC4 (Homo sapiens, UniProt P56524). As to the kind of experiment: HDAC enzyme activity test, HDAC4. The following applies: Table 11, eleven HDAC isozymes; read-out: Inhibition ability (IC50) against HDAC4. As to the method:
as §1

Assay [7] has as its target T4, HDAC11 (Homo sapiens, UniProt Q96DB2).
T4 sequence (Q96DB2 1-347): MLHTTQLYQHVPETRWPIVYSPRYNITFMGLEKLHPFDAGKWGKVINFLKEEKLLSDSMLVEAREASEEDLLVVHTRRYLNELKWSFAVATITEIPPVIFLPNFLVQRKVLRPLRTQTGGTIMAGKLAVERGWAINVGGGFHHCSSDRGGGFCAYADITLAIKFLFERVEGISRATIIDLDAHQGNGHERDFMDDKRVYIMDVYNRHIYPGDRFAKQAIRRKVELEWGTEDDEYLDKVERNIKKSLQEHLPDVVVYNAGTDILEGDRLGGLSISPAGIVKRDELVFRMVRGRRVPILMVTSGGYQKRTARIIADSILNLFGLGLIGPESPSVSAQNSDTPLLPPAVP
As to the kind of experiment: HDAC enzyme activity test, HDAC11. The following applies: Table 11, eleven HDAC isozymes; read-out: Inhibition ability (IC50) against HDAC11. As to the method: as §1

[8] abbreviates: Table 11, eleven HDAC isozymes, read-out: Inhibition ability (IC50) against HDAC1.
Where [9] appears, read: Table 12, read-out: Inhibition ability (IC50) HDAC1.

Sequence of HDAC9 (Q9UKV0 whole entry, species assumed): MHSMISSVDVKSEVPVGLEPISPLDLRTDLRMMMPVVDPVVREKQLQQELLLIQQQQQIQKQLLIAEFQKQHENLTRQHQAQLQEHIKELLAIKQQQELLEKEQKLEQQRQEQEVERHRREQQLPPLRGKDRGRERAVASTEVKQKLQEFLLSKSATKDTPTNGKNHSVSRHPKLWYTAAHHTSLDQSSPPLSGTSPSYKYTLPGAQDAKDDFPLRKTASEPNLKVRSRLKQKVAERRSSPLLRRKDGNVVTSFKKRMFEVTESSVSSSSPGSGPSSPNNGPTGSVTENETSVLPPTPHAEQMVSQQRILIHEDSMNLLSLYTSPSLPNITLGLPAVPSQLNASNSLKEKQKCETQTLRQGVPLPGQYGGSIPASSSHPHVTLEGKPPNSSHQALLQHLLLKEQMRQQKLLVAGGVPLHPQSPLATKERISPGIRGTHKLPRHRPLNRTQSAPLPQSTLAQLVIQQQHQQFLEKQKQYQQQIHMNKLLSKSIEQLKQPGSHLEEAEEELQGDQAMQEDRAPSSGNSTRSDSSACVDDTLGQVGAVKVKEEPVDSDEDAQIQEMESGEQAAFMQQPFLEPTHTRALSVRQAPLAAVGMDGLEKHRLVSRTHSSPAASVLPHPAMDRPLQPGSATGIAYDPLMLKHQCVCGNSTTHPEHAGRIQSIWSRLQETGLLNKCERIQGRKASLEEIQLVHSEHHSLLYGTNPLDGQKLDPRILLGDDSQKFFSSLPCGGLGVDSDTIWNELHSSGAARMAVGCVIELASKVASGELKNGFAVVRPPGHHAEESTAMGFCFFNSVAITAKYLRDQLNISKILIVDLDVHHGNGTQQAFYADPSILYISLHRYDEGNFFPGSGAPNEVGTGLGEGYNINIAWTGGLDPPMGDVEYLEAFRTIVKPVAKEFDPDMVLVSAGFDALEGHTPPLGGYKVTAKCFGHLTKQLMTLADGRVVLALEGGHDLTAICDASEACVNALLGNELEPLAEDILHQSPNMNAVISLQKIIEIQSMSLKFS
Sequence of HDAC5 (Q9UQL6 whole entry, species assumed): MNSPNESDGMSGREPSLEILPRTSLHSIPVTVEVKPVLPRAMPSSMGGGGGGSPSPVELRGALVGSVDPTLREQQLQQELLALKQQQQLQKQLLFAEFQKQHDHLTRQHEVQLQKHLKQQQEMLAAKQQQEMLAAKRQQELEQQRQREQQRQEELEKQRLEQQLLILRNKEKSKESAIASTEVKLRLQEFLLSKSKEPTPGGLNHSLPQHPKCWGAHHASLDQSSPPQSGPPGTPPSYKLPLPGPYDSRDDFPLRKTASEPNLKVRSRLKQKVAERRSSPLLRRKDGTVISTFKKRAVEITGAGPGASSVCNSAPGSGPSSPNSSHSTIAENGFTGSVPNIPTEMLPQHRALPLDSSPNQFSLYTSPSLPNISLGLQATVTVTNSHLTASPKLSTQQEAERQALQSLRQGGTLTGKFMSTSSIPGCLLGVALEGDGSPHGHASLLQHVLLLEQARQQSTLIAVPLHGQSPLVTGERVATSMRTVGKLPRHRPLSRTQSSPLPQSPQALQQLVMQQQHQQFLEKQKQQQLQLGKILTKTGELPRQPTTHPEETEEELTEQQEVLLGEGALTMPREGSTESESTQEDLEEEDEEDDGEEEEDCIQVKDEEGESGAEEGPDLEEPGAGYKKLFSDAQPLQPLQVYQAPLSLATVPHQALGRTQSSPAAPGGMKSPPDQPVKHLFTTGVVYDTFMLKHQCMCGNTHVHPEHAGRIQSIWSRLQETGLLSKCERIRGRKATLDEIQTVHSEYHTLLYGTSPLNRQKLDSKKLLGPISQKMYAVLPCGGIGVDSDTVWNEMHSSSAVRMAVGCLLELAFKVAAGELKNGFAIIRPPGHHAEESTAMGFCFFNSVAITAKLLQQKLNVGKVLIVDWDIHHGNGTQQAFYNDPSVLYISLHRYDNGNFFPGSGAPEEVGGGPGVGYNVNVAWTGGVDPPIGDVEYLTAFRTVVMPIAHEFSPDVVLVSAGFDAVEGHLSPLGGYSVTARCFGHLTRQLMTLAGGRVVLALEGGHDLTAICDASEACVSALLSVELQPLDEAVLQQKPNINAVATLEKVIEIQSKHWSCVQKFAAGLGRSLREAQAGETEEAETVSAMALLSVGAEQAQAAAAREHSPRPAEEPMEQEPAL
T1 sequence (Q13547 whole entry): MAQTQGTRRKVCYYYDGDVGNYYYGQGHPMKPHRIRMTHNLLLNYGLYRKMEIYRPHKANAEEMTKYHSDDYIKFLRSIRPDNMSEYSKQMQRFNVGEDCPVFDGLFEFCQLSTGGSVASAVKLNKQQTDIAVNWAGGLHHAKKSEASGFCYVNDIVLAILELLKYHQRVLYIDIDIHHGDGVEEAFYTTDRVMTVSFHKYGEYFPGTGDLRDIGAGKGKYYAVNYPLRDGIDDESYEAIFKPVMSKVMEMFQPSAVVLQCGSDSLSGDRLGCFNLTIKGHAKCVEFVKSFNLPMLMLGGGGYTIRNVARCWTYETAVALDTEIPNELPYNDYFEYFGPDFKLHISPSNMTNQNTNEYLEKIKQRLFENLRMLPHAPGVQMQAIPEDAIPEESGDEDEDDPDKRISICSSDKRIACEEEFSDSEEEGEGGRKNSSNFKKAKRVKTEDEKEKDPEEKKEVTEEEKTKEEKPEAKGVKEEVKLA
Sequence of HDAC4 (P56524 whole entry, species assumed): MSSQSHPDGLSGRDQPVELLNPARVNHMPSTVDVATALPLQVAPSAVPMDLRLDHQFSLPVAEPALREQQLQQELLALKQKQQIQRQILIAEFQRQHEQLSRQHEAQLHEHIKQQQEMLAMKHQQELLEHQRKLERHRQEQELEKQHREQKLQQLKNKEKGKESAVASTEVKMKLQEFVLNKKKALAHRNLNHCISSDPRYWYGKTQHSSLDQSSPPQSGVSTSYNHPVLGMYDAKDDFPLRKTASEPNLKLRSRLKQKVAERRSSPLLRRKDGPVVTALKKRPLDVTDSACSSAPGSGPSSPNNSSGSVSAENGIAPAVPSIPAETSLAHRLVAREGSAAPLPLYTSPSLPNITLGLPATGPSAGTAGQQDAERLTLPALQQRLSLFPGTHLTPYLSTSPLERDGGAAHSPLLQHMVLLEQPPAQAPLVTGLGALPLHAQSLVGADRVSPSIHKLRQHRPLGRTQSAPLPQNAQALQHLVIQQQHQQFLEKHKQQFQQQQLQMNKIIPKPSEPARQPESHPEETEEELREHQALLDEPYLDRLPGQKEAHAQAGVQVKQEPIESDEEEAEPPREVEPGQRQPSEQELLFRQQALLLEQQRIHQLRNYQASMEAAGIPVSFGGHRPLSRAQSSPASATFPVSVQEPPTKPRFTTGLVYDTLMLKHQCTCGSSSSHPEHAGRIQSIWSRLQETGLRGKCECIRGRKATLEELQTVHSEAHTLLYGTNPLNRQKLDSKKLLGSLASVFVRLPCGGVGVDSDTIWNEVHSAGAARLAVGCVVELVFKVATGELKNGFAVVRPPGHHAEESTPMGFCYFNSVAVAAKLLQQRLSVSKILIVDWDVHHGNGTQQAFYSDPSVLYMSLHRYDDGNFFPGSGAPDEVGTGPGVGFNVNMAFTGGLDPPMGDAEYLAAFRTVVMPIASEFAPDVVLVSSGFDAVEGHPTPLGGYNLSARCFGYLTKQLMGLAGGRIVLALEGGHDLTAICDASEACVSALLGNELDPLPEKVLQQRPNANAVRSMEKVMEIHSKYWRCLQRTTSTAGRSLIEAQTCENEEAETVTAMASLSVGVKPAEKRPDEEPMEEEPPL

Regarding `CN1CCN(C(=O)N(CCCCCCC(=O)NO)c2ccc(-c3ccc4cnn(C)c4c3)cc2)CC1` [CKD-581, reference compound], the IC50 in assay [1] (setting [8]) came out at 0.000673 µM; in assay [2] it was 0.00109 µM; in assay [3] it was 0.00042 µM; in assay [4], 0.00266 µM; in assay [5] it was 0.0861 µM; in assay [6], 1.68 µM. Moreover, the IC50 in assay [7] stood at 0.00152 µM.
Take `O=C(NO)c1ccc(Cn2c3c(c4ccccc42)C(=O)C(CN2CCOCC2)CC3)cc1` (centres unmarked) [Compound 87, N-hydroxy-4-((3-(morpholinomethyl)-4-oxo-1,2,3,4-tetrahydrocarbazol-9-yl)methyl)benzamide]: the IC50 in assay [1] (setting [9]) turned out to be 3.07 µM; in assay [1] (data of Table 11, read-out: IC50 against HDAC1), 11.2 µM; in assay [2], 5.08 µM; in assay [3], 1.75 µM; in assay [4], 15.3 µM; in assay [5], 1.28 µM. The figures for the IC50 in assay [6] and in assay [7] were 0.934 µM and 37.5 µM, respectively.
As to `CN1CCN(CC2CCc3c(c4cc(F)ccc4n3Cc3ccc(C(=O)NO)cc3)C2=O)CC1` (centres unmarked) [Compound 142, 4-((6-fluoro-3-((4-methylpiperazin-1-yl)methyl)-4-oxo-1,2,3,4-tetrahydrocarbazol-9-yl)methyl)-N-hydroxybenzamide], the IC50 was 12.2 µM in assay [1] (setting [8]); 2.65 µM in assay [1] (setting [9]); 4.27 µM in assay [2]; 1.88 µM in assay [3]; 37 µM in assay [4]; 1.06 µM in assay [5]. Further, the values for the IC50 in assay [6] and in assay [7] were 2.21 µM and 11.1 µM, respectively.
For `CC1(C)CC(=O)c2c(C(F)(F)F)nn(Cc3ccc(C(=O)NO)cc3)c2C1` [Compound 237, 4-((6,6-dimethyl-4-oxo-3-(trifluoromethyl)-4,5,6,7-tetrahydro-1H-indazol-1-yl)methyl)-N-hydroxybenzamide], the IC50 in assay [1] (setting [9]) stood at 3.91 µM; in assay [2], 16 µM; in assay [3], 16.9 µM; in assay [4], 76.1 µM; in assay [5], 3.93 µM; in assay [6] it was 4.99 µM. For the same molecule, the IC50 in assay [7] stood at 33.9 µM.
For `O=C(NO)c1ccc(Cn2c3c(c4ccccc42)C(=O)N(CCN2CCOCC2)CC3)cc1` [Compound 249, N-hydroxy-4-((2-(2-morpholinoethyl)-1-oxo-1,2,3,4-tetrahydropyrido[4,3-b]indol-5-yl)methyl)benzamide], the IC50 in assay [1] (setting [8]) was determined as 8.47 µM; in assay [1] (setting [9]), 3.46 µM; in assay [2] it was 4.62 µM; in assay [3], 1.03 µM; in assay [4], 53 µM; in assay [5] it was 0.22 µM. The IC50 in assay [6] was 0.255 µM; in assay [7] it was 5.53 µM.
